Data taken from US20260027116A1, “Methods of Treating Chronic Graft-Versus-Host Disease Following Allogeneic Hematopoietic Stem Cell Transplantation” (Kadmon Corporation, LLC, priority 2022, published 2026).

Tested on: patients with cGVHD
Details: Cohort 1 200 mg QD
Procedure: All responses were assessed by the investigators.
Reported Adverse Events. […] All-cause mortality data collected during the study were assessed for all enrolled participants. Disease progression related death was not reported as AE.
Number of Participants With Treatment-emergent Adverse Events (TEAEs), and Treatment-emergent Serious Adverse Events (TESAEs). […] TEAEs included both SAEs and non-SAEs. […] Analysis was performed on safety population which included all participants who received at least 1 dose of study medication.

CC(C)NC(=O)COc1cccc(-c2nc(Nc3ccc4[nH]ncc4c3)c3ccccc3n2)c1 [Belumosudil, 2-{3-[4-(1H-indazol-5-ylamino)-2-quinazolinyl]phenoxy}-N-(propan-2-yl) acetamide]
Abdominal distension: # Events: 1 | Abdominal distension: Affected/At Risk (%): 1/17 (5.88%) | Abdominal pain upper: # Events: 1 | Abdominal pain upper: Affected/At Risk (%): 1/17 (5.88%) | Abdominal pain: # Events: 2 | Abdominal pain: Affected/At Risk (%): 2/17 (11.76%) | Actinic keratosis: # Events: 0 | Actinic keratosis: Affected/At Risk (%): 0/17 (0%) | Acute kidney injury: # Events: 4 | Acute kidney injury: Affected/At Risk (%): 1/17 (5.88%) | Acute respiratory distress syndrome: # Events: 1 | Acute respiratory distress syndrome: Affected/At Risk (%): 1/17 (5.88%) | Adrenal insufficiency: # Events: 2 | Adrenal insufficiency: Affected/At Risk (%): 1/17 (5.88%) | Alanine aminotransferase increased: # Events: 12 | Alanine aminotransferase increased: Affected/At Risk (%): 6/17 (35.29%) | All grade ALT/AST increased, No. (%): 11 (65) | All grade Cough, No. (%): 1 (6) | All grade Diarrhea, No. (%): 6 (35) | All grade Dyspnea, No. (%): 3 (18) | All grade Fatigue, No. (%): 6 (35) | All grade Headache, No. (%): 4 (24) | All grade Hypertension, No. (%): 5 (29) | All grade Nausea, No. (%): 6 (35) | All grade Peripheral edema, No. (%): 3 (18) | All grade URI, No. (%): 9 (53) | All-Cause Mortality, %: (11.76%) | All-Cause Mortality, Affected/At Risk: 2/17 | Anaemia: # Events: 14 | Anaemia: Affected/At Risk (%): 5/17 (29.41%) | Anal incontinence: # Events: 2 | Anal incontinence: Affected/At Risk (%): 1/17 (5.88%) | Anxiety: # Events: 1 | Anxiety: Affected/At Risk (%): 1/17 (5.88%) | Any AE, No. (%): 17 (100) | Arthralgia: # Events: 1 | Arthralgia: Affected/At Risk (%): 1/17 (5.88%) | Aspartate aminotransferase increased: # Events: 8 | Aspartate aminotransferase increased: Affected/At Risk (%): 5/17 (29.41%) | Asthenia: # Events: 0 | Asthenia: Affected/At Risk (%): 0/17 (0%) | Atelectasis: # Events: 1 | Atelectasis: Affected/At Risk (%): 1/17 (5.88%) | Back pain: # Events: 0 | Back pain: Affected/At Risk (%): 0/17 (0%) | Balance disorder: # Events: 0 | Balance disorder: Affected/At Risk (%): 0/17 (0%) | Basal cell carcinoma: # Events: 0 | Basal cell carcinoma: Affected/At Risk (%): 0/17 (0%) | Benign prostatic hyperplasia: # Events: 1 | Benign prostatic hyperplasia: Affected/At Risk (%): 1/17 (5.88%) | Blepharitis: # Events: 1 | Blepharitis: Affected/At Risk (%): 1/17 (5.88%) | Blister: # Events: 0 | Blister: Affected/At Risk (%): 0/17 (0%) | Blood alkaline phosphatase increased: # Events: 6 | Blood alkaline phosphatase increased: Affected/At Risk (%): 4/17 (23.53%) | Blood chloride decreased: # Events: 0 | Blood chloride decreased: Affected/At Risk (%): 0/17 (0%) | Blood cholesterol increased: # Events: 2 | Blood cholesterol increased: Affected/At Risk (%): 1/17 (5.88%) | Blood creatine increased: # Events: 0 | Blood creatine increased: Affected/At Risk (%): 0/17 (0%) | Blood creatine phosphokinase increased: # Events: 1 | Blood creatine phosphokinase increased: Affected/At Risk (%): 1/17 (5.88%) | Blood creatinine increased: # Events: 1 | Blood creatinine increased: Affected/At Risk (%): 1/17 (5.88%) | Blood loss anaemia: # Events: 1 | Blood loss anaemia: Affected/At Risk (%): 1/17 (5.88%) | Bronchial secretion retention: # Events: 0 | Bronchial secretion retention: Affected/At Risk (%): 0/17 (0%) | Bronchitis: # Events: 1 | Bronchitis: Affected/At Risk (%): 1/17 (5.88%) | Bronchoscopy: # Events: 1 | Bronchoscopy: Affected/At Risk (%): 1/17 (5.88%) | Catheter site haemorrhage: # Events: 1 | Catheter site haemorrhage: Affected/At Risk (%): 1/17 (5.88%) | Chills: # Events: 1 | Chills: Affected/At Risk (%): 1/17 (5.88%) | Chronic kidney disease: # Events: 1 | Chronic kidney disease: Affected/At Risk (%): 1/17 (5.88%) | Conjunctival haemorrhage: # Events: 0 | Conjunctival haemorrhage: Affected/At Risk (%): 0/17 (0%) | Conjunctivitis: # Events: 0 | Conjunctivitis: Affected/At Risk (%): 0/17 (0%) | Constipation: # Events: 1 | Constipation: Affected/At Risk (%): 1/17 (5.88%) | Contrast media allergy: # Events: 0 | Contrast media allergy: Affected/At Risk (%): 0/17 (0%) | Contusion: # Events: 2 | Contusion: Affected/At Risk (%): 2/17 (11.76%) | Corneal abrasion: # Events: 1 | Corneal abrasion: Affected/At Risk (%): 1/17 (5.88%) | Corneal infection: # Events: 0 | Corneal infection: Affected/At Risk (%): 0/17 (0%) | Cough: # Events: 1 | Cough: Affected/At Risk (%): 1/17 (5.88%) | Death, No. (%): 0 | Decreased appetite: # Events: 4 | Decreased appetite: Affected/At Risk (%): 2/17 (11.76%) | Dehydration: # Events: 2 | Dehydration: Affected/At Risk (%): 2/17 (11.76%) | Depression: # Events: 0 | Depression: Affected/At Risk (%): 0/17 (0%) | Diarrhoea: # Events: 9 | Diarrhoea: Affected/At Risk (%): 6/17 (35.29%) | Dizziness: # Events: 0 | Dizziness: Affected/At Risk (%): 0/17 (0%) | Drug eruption: # Events: 0 | Drug eruption: Affected/At Risk (%): 0/17 (0%) | Drug-related AE, No. (%): 8 (47) | Drug-related SAE, No. (%): 0 | Dry eye: # Events: 3 | Dry eye: Affected/At Risk (%): 2/17 (11.76%) | Dry skin: # Events: 1 | Dry skin: Affected/At Risk (%): 1/17 (5.88%) | Dyspepsia: # Events: 0 | Dyspepsia: Affected/At Risk (%): 0/17 (0%) | Dysphagia: # Events: 1 | Dysphagia: Affected/At Risk (%): 1/17 (5.88%) | Dyspnoea exertional: # Events: 1 | Dyspnoea exertional: Affected/At Risk (%): 1/17 (5.88%) | Dyspnoea: # Events: 2 | Dyspnoea: Affected/At Risk (%): 2/17 (11.76%) | Embolism: # Events: 1 | Embolism: Affected/At Risk (%): 1/17 (5.88%) | Enamel anomaly: # Events: 0 | Enamel anomaly: Affected/At Risk (%): 0/17 (0%) | Epidural lipomatosis: # Events: 1 | Epidural lipomatosis: Affected/At Risk (%): 1/17 (5.88%) | Epstein-Barr virus infection: # Events: 1 | Epstein-Barr virus infection: Affected/At Risk (%): 1/17 (5.88%) | Erectile dysfunction: # Events: 4 | Erectile dysfunction: Affected/At Risk (%): 2/17 (11.76%) | Eye irritation: # Events: 1 | Eye irritation: Affected/At Risk (%): 1/17 (5.88%) | Eye pain: # Events: 0 | Eye pain: Affected/At Risk (%): 0/17 (0%) | Eye pruritus: # Events: 0 | Eye pruritus: Affected/At Risk (%): 0/17 (0%) | Fall: # Events: 2 | Fall: Affected/At Risk (%): 2/17 (11.76%) | Fatigue: # Events: 7 | Fatigue: Affected/At Risk (%): 6/17 (35.29%) | Flatulence: # Events: 0 | Flatulence: Affected/At Risk (%): 0/17 (0%) | Flushing: # Events: 0 | Flushing: Affected/At Risk (%): 0/17 (0%) | Fungal infection: # Events: 1 | Fungal infection: Affected/At Risk (%): 1/17 (5.88%) | Gamma-glutamyltransferase increased: # Events: 9 | Gamma-glutamyltransferase increased: Affected/At Risk (%): 4/17 (23.53%) | Gastric ulcer: # Events: 0 | Gastric ulcer: Affected/At Risk (%): 0/17 (0%) | Gastrooesophageal reflux disease: # Events: 2 | Gastrooesophageal reflux disease: Affected/At Risk (%): 2/17 (11.76%) | Generalised oedema: # Events: 1 | Generalised oedema: Affected/At Risk (%): 1/17 (5.88%) | Genital infection fungal: # Events: 0 | Genital infection fungal: Affected/At Risk (%): 0/17 (0%) | Glaucoma: # Events: 0 | Glucose urine present: # Events: 3 | Glucose urine present: Affected/At Risk (%): 2/17 (11.76%) | Grade ≥3 AE, No. (%): 9 (53) | Grade ≥3 ALT/AST increased, No. (%): 2 (12) | Grade ≥3 Anemia, No. (%): 2 (12) | Grade ≥3 Dyspnea, No. (%): 1 (6) | Grade ≥3 Hyperglycemia, No. (%): 2 (12) | Grade ≥3 Hypoxia, No. (%): 1 (6)
